Here are results for 16 compounds from patent US11124516B2, “Pyrrolo[1,2-A]pyrimidinyl carboxamide compounds and their use in the treatment of medical disorders” (Bial—Biotech Investments, Inc., priority 2016, dated 2021).

Structures are written as SMILES. Converted amounts (≈) assume the structure as drawn.

Data set [1] can be described thus: Compound solubility in water. Format: physicochemical.
Data set [2] addresses T1, glucocerebrosidase (Gcase) (Homo sapiens, UniProt P04062).
T1 sequence (P04062 40-536): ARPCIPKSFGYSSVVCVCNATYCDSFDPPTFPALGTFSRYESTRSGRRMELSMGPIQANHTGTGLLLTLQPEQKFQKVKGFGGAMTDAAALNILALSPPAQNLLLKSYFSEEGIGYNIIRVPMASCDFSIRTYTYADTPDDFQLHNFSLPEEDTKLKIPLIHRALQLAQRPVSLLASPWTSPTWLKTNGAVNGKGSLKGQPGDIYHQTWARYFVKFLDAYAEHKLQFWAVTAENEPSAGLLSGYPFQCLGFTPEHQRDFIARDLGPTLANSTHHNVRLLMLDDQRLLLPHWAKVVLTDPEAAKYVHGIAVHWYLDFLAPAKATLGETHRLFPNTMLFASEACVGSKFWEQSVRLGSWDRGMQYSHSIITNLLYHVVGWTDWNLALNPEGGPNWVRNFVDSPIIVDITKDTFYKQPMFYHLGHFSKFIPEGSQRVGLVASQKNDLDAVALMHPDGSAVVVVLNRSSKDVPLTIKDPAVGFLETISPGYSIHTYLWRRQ
Put plainly: Glucocerebrosidase (Gcase) activation assay, 4-methylumbelliferyl-beta-D-glucopyranoside substrate, fluorescence. Format: biochemical. The settings on record: 10 nM GCase, 100 nM saposin C; for activation at 0.1 µM / activation at 1 µM: 0.25 h; for activation at 0.1 µM: pH 4.7, test compound at 0.1 μM, read-out: Percent Gcase Activation 0.1 μM Test Compound; for activation at 1 µM: pH 4.7, test compound at 1.0 μM, read-out: Percent Gcase Activation 1 μM Test Compound; for Percent Gcase Activation 0.1 μM Test Compound: test compound at 0.1 μM; for Percent Gcase Activation 0.1 μM Test Compound / Percent Gcase Activation 1 μM Test Compound: pH 4.7; for Percent Gcase Activation 1 μM Test Compound: test compound at 1.0 μM. Summed up: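 10 nM GCase with 100 nM saposin C in Triton/phosphatidylserine micelles (citrate-phosphate, pH 4.7), pre-incubated 30 min at room temperature with compound, then 2 mM 4-methylumbelliferyl-β-D-glucoside stock mixed 1:1; 15 min reaction, stopped with glycine pH 12.5, fluorescence at 365/440 nm. Activation scored at 1.0 and 0.1 μM; 8-point curves from 5 μM top.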

Usually solubility stands for how much of the substance goes into solution per volume. Turning to `Cc1cc(C(F)F)nc2c(C(=O)N[C@H]3CC[C@H](OCC(C)(C)C)CC3)ccn12` [IV-14], in data set [1], the solubility came to 0.8 µg/mL (≈ 2.03 µM). In addition, in data set [2], the activation at 0.1 µM was over 20% and the activation at 1 µM is over 60%.

In turn, `Cc1c2c(nc3c(C(=O)N[C@H]4CC[C@H](OC(C)(C)C)CC4)ccn13)CCC2` [III-71] had a solubility in data set [1] of 8 µg/mL (≈ 21.7 µM). In data set [2], the activation at 0.1 µM was under 10% and the activation at 1 µM fell in the range of 30 to 60%.

`COCc1cc(C)nc2c(C(=O)N[C@H]3CC[C@H](OCC(C)(C)C)CC3)ccn12` [IV-2] showed a solubility in data set [1] of 4.2 µg/mL (≈ 10.8 µM). In addition, in data set [2], the activation at 0.1 µM was over 20% and the activation at 1 µM is over 60%.

Consider `Cc1cc(-c2cncnc2)nc2c(C(=O)NC(C)(C)C3CC3)ccn12` [III-42], for which the concentration in solution in data set [1] (solubility) came to 3.4 µg/mL (≈ 10.1 µM). In addition, in data set [2], the activation at 0.1 µM was in the range of 10 to 20% and the activation at 1 µM was over 60%.

As for `COCc1cc(C(F)F)n2ccc(C(=O)NC(C)(C)C3CC3)c2n1` [III-4], the solubility in data set [1] came to 17 µg/mL (≈ 50.4 µM). In addition, in data set [2], the activation at 0.1 µM is over 20% and the activation at 1 µM is over 60%.

In the case of `Cc1cc(C)n2ccc(C(=O)NC(C)c3cccc4ccccc34)c2n1` (stereo not drawn) [IV-47], the “Compound Solubility in Water” value in data set [1] stood at 0.7 µg/mL. For the same compound, in data set [2], the “Percent Gcase Activation 0.1 μM Test Compound” value was “*** (greater than 20% Gcase activation)” and the “Percent Gcase Activation 1 μM Test Compound” value is listed as “+++ (Gcase activation greater than 60%)”.

Take `Cc1cc(C)n2ccc(C(=O)NC(C)c3ccc4c(c3)OCO4)c2n1` (stereo not drawn) [IV-45]: in data set [1], the concentration in solution (solubility) came to 5.7 µg/mL (≈ 16.9 µM). In data set [2], the activation at 0.1 µM is under 10% and the activation at 1 µM was in the range of 30 to 60%.

`COc1ccccc1[C@@H](C)NC(=O)c1ccn2c(C)cc(C)nc12` [IV-29] registered a solubility in data set [1] of 2.3 µg/mL (≈ 7.11 µM). Further, in data set [2], the activation at 0.1 µM was 10 to 20% and the activation at 1 µM is over 60%.

In turn, `C[C@H](NC(=O)c1ccn2cc(-c3ccc(F)cc3)cnc12)C1CC1` [III-49] came in with a solubility in data set [1] of 0.3 µg/mL (≈ 0.928 µM). Further, in data set [2], the activation at 0.1 µM is under 10% and the activation at 1 µM is under 30%.

Take `CCOc1ccc(C(CC)NC(=O)c2ccn3c(C)cc(C)nc23)cc1F` (stereo not drawn) [IV-51]: the solubility in data set [1] came out at 0.3 µg/mL (≈ 0.812 µM). In data set [2], the activation at 0.1 µM is over 20% and the activation at 1 µM is over 60%.

In data set [1], `Cc1cc(-c2cccnc2)nc2c(C(=O)N[C@H]3CC[C@H](OC(C)(C)C)CC3)ccn12` [III-56] had a solubility of 11.6 µg/mL (≈ 28.5 µM). In addition, in data set [2], the activation at 0.1 µM was 10 to 20% and the activation at 1 µM is over 60%.

For `COCc1cc(C(F)F)nc2c(C(=O)NC(C)(C)C3CCC3)ccn12` [III-5], the concentration in solution in data set [1] (solubility) was 3 µg/mL (≈ 8.54 µM). Further, in data set [2], the activation at 0.1 µM lay within 10 to 20% and the activation at 1 µM is over 60%.

The compound `Cc1cc(C)n2ccc(C(=O)N[C@@H](C)c3ccc(F)cc3)c2n1` [IV-21] displayed a solubility in data set [1] of 3.3 µg/mL (≈ 10.6 µM). In data set [2], the activation at 0.1 µM was over 20% and the activation at 1 µM is over 60%.

Regarding `Cc1ccnc2c(C(=O)NC3(c4ccccc4OC4CC4)CC3)ccn12` [III-34], in data set [1], the concentration in solution (solubility) was 6.3 µg/mL (≈ 18.1 µM). Moreover, in data set [2], the activation at 0.1 µM is under 10% and the activation at 1 µM lay within 30 to 60%.

Take `Cc1cc(C)n2c(F)cc(C(=O)N[C@@H](C)C3CC3)c2n1` [IV-17]: the concentration in solution in data set [1] (solubility) came to 21.6 µg/mL (≈ 78.5 µM). Besides, in data set [2], the activation at 0.1 µM was in the range of 10 to 20% and the activation at 1 µM was over 60%.

As for `Cc1cc(C)n2ccc(C(=O)NC(C)c3cccc4ccccc34)c2n1` (stereo not drawn) [IV-26], the “Compound Solubility in Water” value in data set [1] is 0.2 µg/mL. Further, in data set [2], the “Percent Gcase Activation 0.1 μM Test Compound” value was “** (Gcase activation in the range of 10% up to 20%)” and the “Percent Gcase Activation 1 μM Test Compound” value is listed as “+++ (Gcase activation greater than 60%)”.
